{"source": "patent US20230220347A1", "about": "“SCALING UP MYOGENIC TISSUE: LATE PASSAGE MYOGENICITY” (Upside Foods, Inc., priority 2021, published 2023)", "test_system": "late passage TERT-immortalized 7A chicken fibroblasts stably transfected with ggMYOD", "assay": "Myotube formation (MyHC staining) of late passage 7A TERT ggMYOD fibroblasts in different media", "format": "cell-based", "conditions": "7A TERT ggMyoD cells, PDL >100; sodium butyrate 0.1 mM added to ME9", "method": "This experiment was designed to assess expression of endogenous downstream myogenic factors (ggMyoG, ggMYMK, and ggMyHC1e) following transfection with a vector encoding ggMYOD in late passage (PDL >100) immortalized fibroblast cells compared to primary fibroblasts. TERT-immortalized 7A fibroblasts were cultured for PDL >100 prior to transfection. For these experiments, a vector including a PGK promoter driving expression of a nucleic acid sequence encoding ggMYOD was transfected into TERT-immortalized 7A chicken fibroblasts (“7A TERT”) or primary fibroblasts using Lipofectamine 3000. Each vector included a puromycin selection cassette to enable selection. Following transfection and selection (0.5 mg/mL puromycin for 4 days), fibroblasts were exposed either to differentiation media (i.e., DMEM/F-12, 2% horse serum) or proliferation media (i.e., ME9; referred to as “undifferentiated” sample (see also culture medias described in FIG. 2)) prior to being assessed for myogenic marker expression using qPCR.\nTo assess whether the late passage immortalized 7A chicken fibroblasts could be induced to form myotubes, the late passage immortalized 7A chicken fibroblasts stably transfected with ggMYOD (as described above; referred to as 7A TERT ggMYOD) were cultured in media: ME58, ME9, and ME9+0.1 mM sodium butyrate. In FIGS. 13A-C MyHC staining was used to aid identification of myotubes.", "note": "Entries after “also recorded” stand apart in the source; their conditions may differ."}
{"compound": "CCCC(=O)[O-].[Na+]", "note": "[sodium butyrate]", "values": [{"measurement": "differentiation capacity (myotube formation, MyHC staining)", "value": "dramatic improvement in differentiation capacity; also recorded: significant increase in myogenic differentiation capacity"}]}
